# Data from ChEMBL document CHEMBL1142996 (J Med Chem, 2007).
# Non-standard residues stand in square brackets, D forms with d. Residues, ends and D or L forms follow the SMILES beside them. Phe(4-NH2) = Nc1ccc(C[C@H](N)C(=O)O)cc1
# Molecular target: T1, Angiotensin II receptor (AT-1) type-1 (Rattus norvegicus, UniProt P29089+P25095)
# T1 sequence (P29089 whole entry): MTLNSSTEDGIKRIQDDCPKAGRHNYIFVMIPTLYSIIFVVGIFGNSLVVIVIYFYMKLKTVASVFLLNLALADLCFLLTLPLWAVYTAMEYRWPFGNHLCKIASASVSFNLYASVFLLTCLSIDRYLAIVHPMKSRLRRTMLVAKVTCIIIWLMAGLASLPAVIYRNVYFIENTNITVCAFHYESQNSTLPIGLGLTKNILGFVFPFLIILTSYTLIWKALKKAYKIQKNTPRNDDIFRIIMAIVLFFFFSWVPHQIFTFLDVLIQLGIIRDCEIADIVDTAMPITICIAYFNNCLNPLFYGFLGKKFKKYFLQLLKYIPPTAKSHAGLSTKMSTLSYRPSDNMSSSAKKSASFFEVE
# T1 sequence (P25095 whole entry): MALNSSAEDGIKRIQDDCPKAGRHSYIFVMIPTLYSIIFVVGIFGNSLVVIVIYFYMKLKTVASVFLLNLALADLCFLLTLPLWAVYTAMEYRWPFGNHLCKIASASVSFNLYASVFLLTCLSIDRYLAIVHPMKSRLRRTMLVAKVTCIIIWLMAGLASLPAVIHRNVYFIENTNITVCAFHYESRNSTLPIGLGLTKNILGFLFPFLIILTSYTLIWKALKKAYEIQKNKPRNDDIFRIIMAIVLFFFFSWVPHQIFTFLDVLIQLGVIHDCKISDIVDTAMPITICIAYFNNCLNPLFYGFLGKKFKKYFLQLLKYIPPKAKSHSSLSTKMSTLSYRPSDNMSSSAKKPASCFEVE
# Assay: Displacement of [125I]Ang2 from AT1 receptor in rat liver membrane
# Format: cell membranes
row,SMILES,Ki [µM]
1,CC[C@@H](C)[C@H](NC(=O)[C@@H]1CCCN1C(=O)c1cccc(Cn2ccnc2)c1)C(=O)O,> 10
2,O=C(O)[C@H](Cc1ccccc1)NC(=O)[C@@H]1CCCN1C(=O)c1cccc(Cc2cnc[nH]2)c1,> 10
3,O=C(O)[C@H](Cc1ccccc1)NC(=O)[C@@H]1CCCN1C(=O)c1cccc(Cn2ccnc2)c1,> 10
4,CC[C@@H](C)[C@H](NC(=O)[C@@H]1CCCN1C(=O)c1cccc(Cc2cnc[nH]2)c1)C(=O)O,> 10
5,CC(=O)N[C@@H](Cc1cnc[nH]1)C(=O)N1CCC[C@H]1C(=O)N[C@@H](Cc1ccccc1)C(=O)O (Ac-His-Pro-Phe-OH),> 10
6,CC[C@H](C)[C@H](NC(=O)[C@@H]1CCCN1C(=O)[C@@H](N)Cc1cnc[nH]1)C(=O)O (H-His-Pro-Ile-OH),> 10
7,N[C@@H](Cc1cnc[nH]1)C(=O)N1CCC[C@H]1C(=O)N[C@@H](Cc1ccccc1)C(=O)O (H-His-Pro-Phe-OH),1.598

# Now from value to compound:
row,Ki [µM],SMILES
1,> 10,O=C(N[C@@H](Cc1ccccc1)C(=O)O)c1cccc(Cc2cnc[nH]2)c1
2,> 10,O=C(N[C@@H](Cc1ccccc1)C(=O)O)c1cccc(Cn2ccnc2)c1
3,> 10,CC[C@@H](C)[C@H](NC(=O)c1cccc(Cn2ccnc2)c1)C(=O)O
4,> 10,CC[C@@H](C)[C@H](NC(=O)c1cccc(Cc2cnc[nH]2)c1)C(=O)O
5,> 10,CC[C@H](C)[C@H](NC(=O)[C@@H]1CCCN1C(=O)[C@H](Cc1cnc[nH]1)NC(C)=O)C(=O)O (Ac-His-Pro-Ile-OH)
6,> 10,CC[C@H](C)[C@H](NC(=O)[C@H](Cc1ccc(O)cc1)NC(=O)[C@@H](NC(=O)[C@H](CCCNC(=N)N)NC(=O)[C@@H](N)CC(=O)O)C(C)C)C(=O)N[C@@H](Cc1ccc(N)cc1)C(=O)N1CCC[C@H]1C(=O)N[C@@H](Cc1ccccc1)C(=O)O (H-DRVYI[Phe(4-NH2)]PF-OH)
